Results on one compound are retold here after patent US11613531B2, “Inhibitors of RHO associated coiled-coil containing protein kinase” (Kadmon Corporation, LLC, priority 2017, dated 2023).

The test system of this assay is Bleomycin induced lung fibrosis in mice. In words: Therapeutic bleomycin induced lung fibrosis model. It is filed as in vivo. From the text: FIG. 10a. ROCK inhibitor is therapeutically active in a mouse model of pulmonary fibrosis. Representative images of lung sections stained with Masson's trichrome to visualized fibrosis in the lungs of mice following therapeutic treatment with ROCK inhibitor in the bleomycin-induced lung injury model.
FIG. 10b. Quantitation of the decrease in the fibrosis index in the histopathological analysis of the images from ROCK inhibitor and vehicle treated mice in the bleomycin-induced lung injury model.
FIG. 10c. ROCK target engagement analysis in the lung tissue from the bleomycin-induced pulmonary fibrosis model.
Therapeutic Efficacy of Compounds in Bleomycin Induced Lung Fibrosis in Mice
Male C57B/L6 mice were housed for acclimation for no less than 7 days. After acclimation period, animals were randomly assigned to treatment groups. On day 0, mice were anesthetized with 5% isoflurane by inhalation for 10-15 mins and then suspended by their front teeth on a wire attached to a fixed animal operating plate. 50 μL of saline or bleomycin solution was administered via intratracheal instillation. […]
The activity of ROCK inhibitors in attenuating pulmonary fibrosis in a therapeutic dosing setting was assessed in a bleomycin-induced model, following intratracheal bleomycin installation to induce lung tissue damage and consequent fibrosis of the lung. […]
The improvement in the overall lung fibrosis was quantitated for each animal in the control and treatment groups. […]
In addition to the determination of the therapeutic activity of ROCK inhibition in the pulmonary fibrosis model, target engagement and the extent of ROCK inhibition in the lung of drug treated animals were also determined. Protein extracts were prepared from the snap frozen lung samples and separated on SDS-PAGE and analyzed by Western blotting. ROCK kinase direct target, phosphorylated myosin-binding subunit of myosin phosphatase (MYPT, pT853) and a ROCK pathway regulated protein CCN1 expression levels were detected. […] Western blot results were quantitated by the Image J densitometry program. […]

Setting [1] is: bleomycin treated mouse lungs, western blot.

Take `Clc1cnc(N2C3CCC2CNC3)nc1Nc1ccc2[nH]ncc2c1` [Example 192, N-(2-(3,8-diazabicyclo[3.2.1]octan-8-yl)-5-chloropyrimidin-4-yl)-1H-indazol-5-amine]: under setting [1], the “CCN1 total protein levels in lung” value is “reduction” and the “phosphorylated MYPT (pT853) levels in lung” value is recorded as “reduction”. Moreover, for the setting “mice, therapeutic dosing from day 7, Masson's trichrome-stained sections”, the “collagen amounts in the lungs” value is reported as “significantly lower”.
